The nature of this series: Saturation solubility measurement of compound A in additives. Conditions: room temperature. The format is physicochemical. Here is the method:
Various additives were weighed into a vial, compound A was added until it was no longer dissolved, and the mixture was stirred overnight at room temperature. The mixture was filtered using a 0.45 μm PTFE filter and the concentration of compound A in the filtrate was quantified by high performance liquid chromatography (ODS column, UV detector). When the concentration of compound A exceeded 20%, the addition of compound A was stopped.

Each structure is given as a SMILES string.

Turning to `O=C1[C@@H]2[C@H]3CC[C@H](C3)[C@@H]2C(=O)N1CCCCN1CCN(c2ncccn2)CC1` [compound A, (1R,2S,3R,4S)—N-[4-[4-(pyrimidin-2-yl)piperazin-1-yl]butyl]-2,3-bicyclo[2.2.1]heptan dicarboxyimide], the “saturation solubility of compound A (tandospirone)” value (shortened to “saturation solubility”) is reported as 15.4% (additive: N-methyl-2-pyrrolidone); 2.0% (additive: diisopropyl adipate); 1.6% (additive: dipropylene glycol); 0.6% (additive: isopropyl myristate); “not less than 20%” (additive: lactic acid, stirred overnight, drug addition stopped when solubility exceeded 20%); 2.0% (additive: lauromacrogol (4)). Besides, the “saturation solubility” value is, setting by setting: (additive: levulinic acid, drug addition stopped when solubility exceeded 20%) “not less than 20%”; (additive: oleic acid, drug addition stopped when solubility exceeded 20%) “not less than 20%”; (additive: oleyl alcohol) 1.0%; (additive: polysorbate 20) 1.4%; (additive: polysorbate 80) 1.4%; (additive: propylene glycol fatty acid diester (C8)) 1.3%. Further, the “saturation solubility” value was 5.0% (additive: propylene glycol fatty acid ester (C8)); 5.9% (additive: propylene glycol fatty acid ester (C12)); 2.3% (additive: sorbitan monolaurate, measured as mixed solution isopropyl myristate/sorbitan monolaurate = 50/50).

Values taken from patent US12636259B2, “Transdermal absorption preparation” (Sumitomo Pharma Co., Ltd., priority 2020, dated 2026).
